Source: article PMC8480901 (PLoS ONE, 2021)
Where “and” joins values, the source holds several entries; their conditions need not be identical. Identical values can stand only once.

Tested on: J774.2 mouse macrophages
Test: LPS-induced cytokine and chemokine levels in J774.2 mouse macrophage cell supernatant (ELISA)
Type: cell-based
Details: for CXCL1 % reduction / CXCL1 [pg/mL] Mean / CXCL2 % reduction / CXCL2 [pg/mL] Mean / MMP9 % reduction / MMP9 [pg/mL] Mean: J774.2 cells; for CXCL1 % reduction / CXCL1 [pg/mL] Mean / CXCL2 % reduction / CXCL2 [pg/mL] Mean / MMP9 % reduction / MMP9 [pg/mL] Mean / CCl2, % reduction / CCl2, Mean / GM-CSF % reduction / GM-CSF Mean / IL-1β % reduction / IL-1β Mean / IL-6 % reduction / IL-6 Mean / TNF-α % reduction / TNF-α Mean / CCl2 / CXCL1 / GM-CSF / IL-1β / IL-6 / TNF-α: LPS; for CCl2, % reduction / CCl2, Mean / GM-CSF % reduction / GM-CSF Mean / IL-1β % reduction / IL-1β Mean / IL-6 % reduction / IL-6 Mean / TNF-α % reduction / TNF-α Mean / CCl2 / CXCL1 / GM-CSF / IL-1β / IL-6 / TNF-α: J774.2 supernatant; for CCl2 / CXCL1 / GM-CSF / IL-1β / IL-6 / TNF-α: individual replicate

CC[C@H]1OC(=O)[C@H](C)[C@@H](O[C@H]2C[C@@](C)(OC)[C@@H](O)[C@H](C)O2)[C@H](C)[C@@H](O[C@@H]2O[C@H](C)C[C@H](N(C)C)[C@H]2O)[C@](C)(O)C[C@@H](C)CN(C)[C@H](C)[C@@H](O)[C@]1(C)O [Azithromycin]
CXCL1 % reduction (compound 0.03 µM): -14%
CXCL1 [pg/mL] Mean (compound 0.03 µM): 29 pg/mL
CXCL2 % reduction (compound 0.03 µM): 36%
CXCL2 [pg/mL] Mean (compound 0.03 µM): 20828 pg/mL
MMP9 % reduction (compound 0.03 µM): -31%
MMP9 [pg/mL] Mean (compound 0.03 µM): 1243 pg/mL
CXCL1 % reduction (compound 0.1 µM): -29%
CXCL1 [pg/mL] Mean (compound 0.1 µM): 33 pg/mL
CXCL2 % reduction (compound 0.1 µM): 38%
CXCL2 [pg/mL] Mean (compound 0.1 µM): 20316 pg/mL
MMP9 % reduction (compound 0.1 µM): -12%
MMP9 [pg/mL] Mean (compound 0.1 µM): 1072 pg/mL
CXCL1 % reduction (compound 0.3 µM): -11%
CXCL1 [pg/mL] Mean (compound 0.3 µM): 28 pg/mL
CXCL2 % reduction (compound 0.3 µM): 29%
CXCL2 [pg/mL] Mean (compound 0.3 µM): 23099 pg/mL
MMP9 % reduction (compound 0.3 µM): -7%
MMP9 [pg/mL] Mean (compound 0.3 µM): 1027 pg/mL
CXCL1 % reduction (compound 1 µM): -18%
CXCL1 [pg/mL] Mean (compound 1 µM): 30 pg/mL
CXCL2 % reduction (compound 1 µM): 13%
CXCL2 [pg/mL] Mean (compound 1 µM): 28283 pg/mL
MMP9 % reduction (compound 1 µM): -11%
CXCL1 % reduction (compound 3 µM): -30%
CXCL1 [pg/mL] Mean (compound 3 µM): 33 pg/mL
CXCL2 % reduction (compound 3 µM): 51%
CXCL2 [pg/mL] Mean (compound 3 µM): 15868 pg/mL
MMP9 % reduction (compound 3 µM): -14%
MMP9 [pg/mL] Mean (compound 3 µM): 1088 pg/mL
CXCL1 % reduction (compound 10 µM): -51%
CXCL1 [pg/mL] Mean (compound 10 µM): 39 pg/mL
CXCL2 % reduction (compound 10 µM): 45%
CXCL2 [pg/mL] Mean (compound 10 µM): 18014 pg/mL
MMP9 % reduction (compound 10 µM): 11%
MMP9 [pg/mL] Mean (compound 10 µM): 860 pg/mL
CXCL1 % reduction (compound 30 µM): -135%
CXCL1 [pg/mL] Mean (compound 30 µM): 60 pg/mL
CXCL2 % reduction (compound 30 µM): 26%
CXCL2 [pg/mL] Mean (compound 30 µM): 23980 pg/mL
MMP9 % reduction (compound 30 µM): 47%
MMP9 [pg/mL] Mean (compound 30 µM): 539 pg/mL
CXCL1 % reduction (compound 100 µM): -128%
CXCL1 [pg/mL] Mean (compound 100 µM): 58 pg/mL
CXCL2 % reduction (compound 100 µM): 35%
CXCL2 [pg/mL] Mean (compound 100 µM): 21270 pg/mL
MMP9 % reduction (compound 100 µM): 70%
MMP9 [pg/mL] Mean (compound 100 µM): 332 pg/mL
levels of the measured LPS-induced cytokines, chemokines, or MMP-9 in supernatants (J774.2 mouse macrophages, concentrations tested (0.03 to 10 μM shown)): little to no reduction
CCl2, % reduction (0.03 µM): 18%
CCl2, Mean (0.03 µM): 29824 pg/mL
GM-CSF % reduction (0.03 µM): 64%
GM-CSF Mean (0.03 µM): 507 pg/mL
IL-1β % reduction (0.03 µM): -40%
IL-1β Mean (0.03 µM): 266 pg/mL
IL-6 % reduction (0.03 µM): 9%
IL-6 Mean (0.03 µM): 70233 pg/mL
TNF-α % reduction (0.03 µM): -11%
TNF-α Mean (0.03 µM): 1517 pg/mL
CCl2 (0.03 µM): 28757.8 pg/mL and 30890.3 pg/mL
CXCL1 (0.03 µM): 31.2 pg/mL and 27.2 pg/mL
GM-CSF (0.03 µM): 560.6 pg/mL and 452.6 pg/mL
IL-1β (0.03 µM): 258.52 pg/mL and 274.336 pg/mL
IL-6 (0.03 µM): 75760 pg/mL and 64706 pg/mL
TNF-α (0.03 µM): 1559.1 pg/mL and 1475.0 pg/mL
CCl2, % reduction (0.1 µM): 25%
CCl2, Mean (0.1 µM): 27461 pg/mL
GM-CSF % reduction (0.1 µM): 56%
GM-CSF Mean (0.1 µM): 616 pg/mL
IL-1β % reduction (0.1 µM): -16%
IL-1β Mean (0.1 µM): 222 pg/mL
IL-6 % reduction (0.1 µM): -5%
IL-6 Mean (0.1 µM): 81359 pg/mL
TNF-α % reduction (0.1 µM): -22%
TNF-α Mean (0.1 µM): 1665 pg/mL
CCl2 (0.1 µM): 26336.9 pg/mL and 28584.6 pg/mL
CXCL1 (0.1 µM): 32.4 pg/mL and 33.7 pg/mL
GM-CSF (0.1 µM): 657.0 pg/mL and 575.0 pg/mL
IL-1β (0.1 µM): 219.952 pg/mL and 223.825 pg/mL
IL-6 (0.1 µM): 80523 pg/mL and 82194 pg/mL
TNF-α (0.1 µM): 1716.4 pg/mL and 1614.2 pg/mL
CCl2, % reduction (0.3 µM): 20%
CCl2, Mean (0.3 µM): 29163 pg/mL
GM-CSF % reduction (0.3 µM): 72%
GM-CSF Mean (0.3 µM): 397 pg/mL
IL-1β % reduction (0.3 µM): 9%
IL-1β Mean (0.3 µM): 173 pg/mL
IL-6 % reduction (0.3 µM): 8%
IL-6 Mean (0.3 µM): 71113 pg/mL
TNF-α % reduction (0.3 µM): -8%
TNF-α Mean (0.3 µM): 1475 pg/mL
CCl2 (0.3 µM): 28466.3 pg/mL and 29859.2 pg/mL
CXCL1 (0.3 µM): 27.1 pg/mL and 29.7 pg/mL
GM-CSF (0.3 µM): 346.8 pg/mL and 446.6 pg/mL
IL-1β (0.3 µM): 173.433 pg/mL and 172.638 pg/mL
IL-6 (0.3 µM): 72113 pg/mL and 70113 pg/mL
TNF-α (0.3 µM): 1462.3 pg/mL and 1488.2 pg/mL
